Measured values reported in PubChem BioAssay AID1963825 (Molecular Pharmacology Branch, DTP, NCI, 2024).

Test: Anticancer human tumor 997537-175-T-J1-PDC patient-derived colon adenocarcinoma cell line growth inhibition [POLQ]
Conditions: 997537-175-T-J1-PDC complex spheroid viability, combination with POLQ inhibitors; for IC50: curve of first compound; for viability, T/C: stronger effect = lower value
How it was run: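 Complex spheroid viability model combining PDC tumour cells with endothelial (HUVEC) and MSC stromal cells. Novobiocin, ART-558 or RP6685 were tested singly and in combination with standard and investigational anticancer drugs. Each was titrated in half-log steps from near clinical Cmax, or from 10 microM where Cmax was unknown.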

[1] = second compound 0.0316 µM, first compound 0.0316 µM
[2] = second compound 0.0316 µM, first compound 0.1 µM
[3] = second compound 0.1 µM, first compound 0.0316 µM
[4] = second compound 0.1 µM, first compound 0.1 µM
[5] = second compound 0.316 µM, first compound 0.0316 µM
[6] = second compound 0.316 µM, first compound 0.1 µM
[7] = second compound 1 µM, first compound 0.0316 µM
[8] = second compound 1 µM, first compound 0.1 µM
[9] = second compound 3.16 µM, first compound 0.0316 µM
[10] = second compound 3.16 µM, first compound 0.1 µM
[11] = second compound 10 µM, first compound 0.0316 µM
[12] = second compound 10 µM, first compound 0.1 µM
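Also: luminescence signal used as a surrogate for viable cells; spheroids exposed to drugs for seven days before readout.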

Cn1ncnc1[C@H]1c2n[nH]c(=O)c3cc(F)cc(c23)N[C@@H]1c1ccc(F)cc1 + Nc1ccc(C#CCN(C(=O)Cc2ncc(C(F)(F)F)cc2C(F)(F)F)c2ccc(F)cc2)nn1
IC50 (second compound 0.0316 µM): > 0.1 µM
IC50 (second compound 0.1 µM): > 0.1 µM
IC50 (second compound 0.316 µM): > 0.1 µM
IC50 (second compound 1 µM): > 0.1 µM
IC50 (second compound 3.16 µM): > 0.1 µM
IC50 (second compound 10 µM): > 0.1 µM
viability, T/C (second compound 0.0316 µM, first compound 0.000316 µM): 98.8%
viability, T/C (second compound 0.0316 µM, first compound 0.001 µM): 97.4%
viability, T/C (second compound 0.0316 µM, first compound 0.00316 µM): 104%
viability, T/C (second compound 0.0316 µM, first compound 0.01 µM): 94.5%
viability, T/C [1]: 98.1%
viability, T/C [2]: 103%
viability, T/C (second compound 0.1 µM, first compound 0.000316 µM): 103%
viability, T/C (second compound 0.1 µM, first compound 0.001 µM): 114%
viability, T/C (second compound 0.1 µM, first compound 0.00316 µM): 99.2%
viability, T/C (second compound 0.1 µM, first compound 0.01 µM): 104%
viability, T/C [3]: 95.7%
viability, T/C [4]: 99%
viability, T/C (second compound 0.316 µM, first compound 0.000316 µM): 100%
viability, T/C (second compound 0.316 µM, first compound 0.001 µM): 110%
viability, T/C (second compound 0.316 µM, first compound 0.00316 µM): 95.6%
viability, T/C (second compound 0.316 µM, first compound 0.01 µM): 106%
viability, T/C [5]: 95.3%
viability, T/C [6]: 93.9%
viability, T/C (second compound 1 µM, first compound 0.000316 µM): 105%
viability, T/C (second compound 1 µM, first compound 0.001 µM): 90.5%
viability, T/C (second compound 1 µM, first compound 0.00316 µM): 89.4%
viability, T/C (second compound 1 µM, first compound 0.01 µM): 99.4%
viability, T/C [7]: 120%
viability, T/C [8]: 90.5%
viability, T/C (second compound 3.16 µM, first compound 0.000316 µM): 101%
viability, T/C (second compound 3.16 µM, first compound 0.001 µM): 103%
viability, T/C (second compound 3.16 µM, first compound 0.00316 µM): 86.4%
viability, T/C (second compound 3.16 µM, first compound 0.01 µM): 95.3%
viability, T/C [9]: 104%
viability, T/C [10]: 99.2%
viability, T/C (second compound 10 µM, first compound 0.000316 µM): 95.4%
viability, T/C (second compound 10 µM, first compound 0.001 µM): 102%
viability, T/C (second compound 10 µM, first compound 0.00316 µM): 98.6%
viability, T/C (second compound 10 µM, first compound 0.01 µM): 91.3%
viability, T/C [11]: 103%
viability, T/C [12]: 106%

C#Cc1c(F)ccc2cc(O)cc(-c3ncc4c(N5CC6CCC(C5)N6)nc(OCC56CCCN5CC(F)C6)nc4c3F)c12 (centres undefined) + COC1C(OC(N)=O)C(O)C(Oc2ccc3c(O)c(NC(=O)c4ccc(O)c(CC=C(C)C)c4)c(=O)oc3c2C)OC1(C)C
IC50 (second compound 0.0316 µM): > 10 µM
IC50 (second compound 0.1 µM): > 10 µM
IC50 (second compound 0.316 µM): > 10 µM
IC50 (second compound 1 µM): > 10 µM
IC50 (second compound 3.16 µM): > 10 µM
IC50 (second compound 10 µM): > 10 µM
viability, T/C [1]: 98.8%
viability, T/C [2]: 111%
viability, T/C (second compound 0.0316 µM, first compound 0.316 µM): 103%
viability, T/C (second compound 0.0316 µM, first compound 1 µM): 108%
viability, T/C (second compound 0.0316 µM, first compound 3.16 µM): 112%
viability, T/C (second compound 0.0316 µM, first compound 10 µM): 107%
viability, T/C [3]: 119%
viability, T/C [4]: 104%
viability, T/C (second compound 0.1 µM, first compound 0.316 µM): 105%
viability, T/C (second compound 0.1 µM, first compound 1 µM): 99%
viability, T/C (second compound 0.1 µM, first compound 3.16 µM): 123%
viability, T/C (second compound 0.1 µM, first compound 10 µM): 103%
viability, T/C [5]: 108%
viability, T/C [6]: 116%
viability, T/C (second compound 0.316 µM, first compound 0.316 µM): 97.9%
viability, T/C (second compound 0.316 µM, first compound 1 µM): 104%
viability, T/C (second compound 0.316 µM, first compound 3.16 µM): 101%
viability, T/C (second compound 0.316 µM, first compound 10 µM): 98.4%
viability, T/C [7]: 107%
viability, T/C [8]: 121%
viability, T/C (second compound 1 µM, first compound 0.316 µM): 94.9%
viability, T/C (second compound 1 µM, first compound 1 µM): 95.9%
viability, T/C (second compound 1 µM, first compound 3.16 µM): 111%
viability, T/C (second compound 1 µM, first compound 10 µM): 97.9%
viability, T/C [9]: 108%
viability, T/C [10]: 112%
viability, T/C (second compound 3.16 µM, first compound 0.316 µM): 84.1%
viability, T/C (second compound 3.16 µM, first compound 1 µM): 104%
viability, T/C (second compound 3.16 µM, first compound 3.16 µM): 119%
viability, T/C (second compound 3.16 µM, first compound 10 µM): 95.8%
viability, T/C [11]: 101%
viability, T/C [12]: 108%
viability, T/C (second compound 10 µM, first compound 0.316 µM): 109%
viability, T/C (second compound 10 µM, first compound 1 µM): 106%
viability, T/C (second compound 10 µM, first compound 3.16 µM): 110%
viability, T/C (second compound 10 µM, first compound 10 µM): 97.1%
